Active and inactive are the calls of the source.
Assays:
[1] = HepG2 cell cytotoxicity, dose response, cytotoxicity control, plate reader, cherry-pick, antagonist series (AID 743416); format: functional, cell-based
[2] = LGR2 antagonists, dose response, cell-based, HEK293, CRE-luciferase reporter, cherry pick, set 2 (AID 743343); format: functional;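 note: transfected cells were stimulated with diluted bursicon conditioned medium after compound addition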
[3] = HEK293 cell cytotoxicity, dose response, cytotoxicity control, plate reader, cherry-picked samples (AID 743446); format: functional, cell-based
[4] = MC4R antagonists, dose response, counter-screen for LGR2 antagonist project, cell-based, plate reader, cherry pick (AID 743444); format: functional;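 note: transfected HEK 293 cells stimulated with alpha-MSH peptide; potency of inhibitors of the alpha-MSH evoked signal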
[5] = A549 cell cytotoxicity, dose response, cytotoxicity control, plate reader, cherry-pick, antagonist series (AID 743412); format: functional, cell-based
[6] = ZM109 Env clade C HIV-1 fusion inhibitors, dose response, HeLa effector, CEM target cells, luciferase, cherry-pick (AID 652058); format: functional, cell-based
[7] = CEM21 lymphoblast cell cytotoxicity, dose response, cytotoxicity control for viral fusion inhibitor project, CellTiter-Glo luminescence, cherry-picked (AID 652042); format: functional, cell-based;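 note: potency for signal decrease meaning cytotoxicity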
[8] = inhibitors of HIV Env-driven cell fusion, dose response, cherry-pick (AID 652057); format: functional, cell-based
[9] = off-target signal loss in HeLa-CEM21 co-culture – HeLa F-luc CTL cells, cherry-picked, counter-screen for HIV-1 Env fusion inhibitor project, dose response (AID 652040); format: functional, cell-based;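 note: potency for signal decrease marking cytotoxic or nonspecific inhibition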
[10] = inhibitors of clade B AD8 Env fusion, dose response, cell-based, cherry-pick (AID 652062); format: functional;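 note: luciferase signal from cell-cell fusion driven by HIV-1 clade B AD8 Env; potency is for inhibitors of fusion seen as a drop in luminescence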
[11] = molecular target: T1, Sentrin-specific protease 7 (Homo sapiens, UniProt Q9BQF6); format: functional;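 note: Luminescence-based dose-response confirmation of ultra-high-throughput screening hits, measuring inhibition of SENP7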
T1 sequence (Q9BQF6 whole entry): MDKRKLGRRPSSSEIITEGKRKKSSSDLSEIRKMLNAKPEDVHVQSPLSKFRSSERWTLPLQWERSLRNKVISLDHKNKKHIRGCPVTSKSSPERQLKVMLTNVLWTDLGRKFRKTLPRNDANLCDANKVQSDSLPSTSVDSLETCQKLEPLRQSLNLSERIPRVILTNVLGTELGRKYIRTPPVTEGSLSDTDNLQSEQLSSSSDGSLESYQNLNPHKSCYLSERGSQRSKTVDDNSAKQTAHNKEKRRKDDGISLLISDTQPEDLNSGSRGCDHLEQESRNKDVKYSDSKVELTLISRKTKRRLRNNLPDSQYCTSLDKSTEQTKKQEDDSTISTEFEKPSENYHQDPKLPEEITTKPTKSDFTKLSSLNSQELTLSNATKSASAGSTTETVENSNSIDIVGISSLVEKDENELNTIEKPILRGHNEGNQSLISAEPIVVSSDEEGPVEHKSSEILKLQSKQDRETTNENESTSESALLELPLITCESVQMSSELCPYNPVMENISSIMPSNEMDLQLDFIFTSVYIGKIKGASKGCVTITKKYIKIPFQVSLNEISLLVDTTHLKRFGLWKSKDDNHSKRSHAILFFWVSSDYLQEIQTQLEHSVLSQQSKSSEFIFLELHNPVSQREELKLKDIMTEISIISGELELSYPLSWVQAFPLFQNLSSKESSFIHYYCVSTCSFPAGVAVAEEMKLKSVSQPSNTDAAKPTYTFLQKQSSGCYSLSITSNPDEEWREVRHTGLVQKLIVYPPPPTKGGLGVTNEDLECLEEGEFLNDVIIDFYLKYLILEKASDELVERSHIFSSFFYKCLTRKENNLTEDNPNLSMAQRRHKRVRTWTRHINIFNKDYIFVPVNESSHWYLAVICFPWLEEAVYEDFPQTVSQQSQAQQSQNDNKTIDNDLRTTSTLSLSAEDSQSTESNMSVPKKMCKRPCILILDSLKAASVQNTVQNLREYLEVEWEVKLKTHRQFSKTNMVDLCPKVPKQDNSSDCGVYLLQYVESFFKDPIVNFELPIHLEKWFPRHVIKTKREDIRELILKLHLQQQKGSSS

[12] = molecular target: T2, Sentrin-specific protease 6 (Homo sapiens, UniProt Q9GZR1); format: functional;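 note: Luminescence-based dose-response confirmatory assay of SENP6 inhibition, following up an ultra-high-throughput screen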
T2 sequence (Q9GZR1 whole entry): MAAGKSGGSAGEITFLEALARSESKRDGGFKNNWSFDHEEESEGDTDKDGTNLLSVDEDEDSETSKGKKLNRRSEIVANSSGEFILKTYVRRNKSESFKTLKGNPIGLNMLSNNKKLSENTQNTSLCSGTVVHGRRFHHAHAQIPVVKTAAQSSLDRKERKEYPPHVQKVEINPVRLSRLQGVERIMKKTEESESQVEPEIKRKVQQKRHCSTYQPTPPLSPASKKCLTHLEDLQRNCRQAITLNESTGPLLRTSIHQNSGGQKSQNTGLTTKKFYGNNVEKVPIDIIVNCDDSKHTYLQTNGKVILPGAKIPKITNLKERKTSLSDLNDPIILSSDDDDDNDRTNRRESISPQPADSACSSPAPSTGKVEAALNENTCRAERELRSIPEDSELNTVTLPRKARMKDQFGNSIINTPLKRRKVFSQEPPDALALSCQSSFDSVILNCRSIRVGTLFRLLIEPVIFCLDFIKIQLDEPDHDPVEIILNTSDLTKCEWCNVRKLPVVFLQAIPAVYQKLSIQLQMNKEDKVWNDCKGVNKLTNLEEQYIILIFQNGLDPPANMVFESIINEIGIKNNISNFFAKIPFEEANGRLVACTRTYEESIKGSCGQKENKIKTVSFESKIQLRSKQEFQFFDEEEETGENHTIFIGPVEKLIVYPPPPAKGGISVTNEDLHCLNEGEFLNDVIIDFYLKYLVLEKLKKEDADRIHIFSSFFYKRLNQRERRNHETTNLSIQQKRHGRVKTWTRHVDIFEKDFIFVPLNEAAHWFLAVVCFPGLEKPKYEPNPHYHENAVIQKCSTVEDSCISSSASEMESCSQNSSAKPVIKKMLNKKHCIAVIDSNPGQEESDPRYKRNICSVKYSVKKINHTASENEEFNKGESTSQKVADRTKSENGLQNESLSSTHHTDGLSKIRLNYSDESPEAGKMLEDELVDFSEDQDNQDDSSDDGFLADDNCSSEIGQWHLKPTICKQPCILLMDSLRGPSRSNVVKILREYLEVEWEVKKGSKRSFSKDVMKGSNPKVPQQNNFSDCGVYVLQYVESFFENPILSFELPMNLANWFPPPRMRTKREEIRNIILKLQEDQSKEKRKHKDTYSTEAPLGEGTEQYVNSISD

[13] = molecular target: T3, Sentrin-specific protease 8 (Homo sapiens, UniProt Q96LD8); format: functional;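 note: luminescence read-out of SENP8 inhibition, dose-response confirmation following an ultra-high-throughput screen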
T3 sequence (Q96LD8 whole entry): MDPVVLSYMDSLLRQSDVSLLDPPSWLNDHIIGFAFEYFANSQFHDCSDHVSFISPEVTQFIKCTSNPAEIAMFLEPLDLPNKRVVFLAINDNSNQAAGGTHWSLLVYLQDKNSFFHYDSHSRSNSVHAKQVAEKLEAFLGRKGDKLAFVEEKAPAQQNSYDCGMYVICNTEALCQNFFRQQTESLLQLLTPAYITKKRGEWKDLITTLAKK

Caspase-3 = molecular target: T4, Caspase-3 (Homo sapiens, UniProt P42574); format: functional;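 note: Dose-response selectivity test against caspase-3 for candidate inhibitors of sentrin-specific proteases (SENPs)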
T4 sequence (P42574 whole entry): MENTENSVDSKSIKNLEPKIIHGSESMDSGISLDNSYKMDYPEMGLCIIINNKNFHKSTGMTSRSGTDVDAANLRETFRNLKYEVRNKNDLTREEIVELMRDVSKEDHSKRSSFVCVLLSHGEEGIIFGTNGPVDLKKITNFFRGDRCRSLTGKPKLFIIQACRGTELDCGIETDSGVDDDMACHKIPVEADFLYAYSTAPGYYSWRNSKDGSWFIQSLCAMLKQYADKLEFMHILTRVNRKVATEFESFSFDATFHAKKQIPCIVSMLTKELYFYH

Beta-lactamase [14] = molecular target: T5, Beta-lactamase (Pseudomonas aeruginosa, UniProt Q79MP6); assay: IMP-1 metallo-beta-lactamase inhibitors, dose response, selectivity assay for VIM-2 inhibitor project, biochemical, epi-absorbance (AID 1920)
T5 sequence (Q79MP6 whole entry): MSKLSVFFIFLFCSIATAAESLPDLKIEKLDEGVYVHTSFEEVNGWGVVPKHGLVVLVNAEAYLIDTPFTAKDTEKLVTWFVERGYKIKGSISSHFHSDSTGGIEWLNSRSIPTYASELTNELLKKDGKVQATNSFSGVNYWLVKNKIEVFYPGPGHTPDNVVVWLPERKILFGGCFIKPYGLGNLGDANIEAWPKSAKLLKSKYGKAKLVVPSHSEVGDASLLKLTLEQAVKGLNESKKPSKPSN

Beta-lactamase [15] = molecular target: Beta-lactamase (Salmonella choleraesuis (strain SC-B67), UniProt Q5J463); assay: Epi-absorbance-based counterscreen for selective VIM-2 inhibitors: dose response biochemical high throughput screening assay to identify inhibitors of TEM-1 serine-beta-lactamase.
Chain of Beta-lactamase (Salmonella choleraesuis (strain SC-B67), UniProt Q5J463) (Q5J463 whole entry): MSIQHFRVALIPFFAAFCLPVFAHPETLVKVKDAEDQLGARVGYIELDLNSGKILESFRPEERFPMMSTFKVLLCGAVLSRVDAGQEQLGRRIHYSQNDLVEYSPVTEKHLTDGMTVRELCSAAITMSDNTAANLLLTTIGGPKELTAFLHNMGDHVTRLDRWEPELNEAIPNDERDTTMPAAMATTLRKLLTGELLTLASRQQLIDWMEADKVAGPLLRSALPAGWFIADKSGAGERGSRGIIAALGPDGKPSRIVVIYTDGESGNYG

Beta-lactamase [16] = molecular target: T5, Beta-lactamase; assay: […] counterscreen for selective VIM-2 inhibitors: dose response biochemical high throughput screening assay to identify inhibitors of IMP-1 metallo-beta-lactamase.
[17] = Counterscreen for activators of the function of SWI/SNF related, matrix associated, actin dependent regulator of chromatin, subfamily a, member 2 (SMARCA2, BRM): Luminescence-based cell-based high throughput dose response assay to identify non-selective compounds using the VP16 reporter assay.; format: functional
[18] = molecular target: SWI/SNF-related matrix-associated actin-dependent regulator of chromatin subfamily A member 2 (Homo sapiens, UniProt P51531); assay: Luminescence-based cell-based high throughput dose response assay to identify activators of the function of SWI/SNF related, matrix associated, actin dependent regulator of chromatin, subfamily a, member 2 (SMARCA2, BRM).; format: functional
Chain of SWI/SNF-related matrix-associated actin-dependent regulator of chromatin subfamily A member 2 (P51531 whole entry, the tested form may be a part): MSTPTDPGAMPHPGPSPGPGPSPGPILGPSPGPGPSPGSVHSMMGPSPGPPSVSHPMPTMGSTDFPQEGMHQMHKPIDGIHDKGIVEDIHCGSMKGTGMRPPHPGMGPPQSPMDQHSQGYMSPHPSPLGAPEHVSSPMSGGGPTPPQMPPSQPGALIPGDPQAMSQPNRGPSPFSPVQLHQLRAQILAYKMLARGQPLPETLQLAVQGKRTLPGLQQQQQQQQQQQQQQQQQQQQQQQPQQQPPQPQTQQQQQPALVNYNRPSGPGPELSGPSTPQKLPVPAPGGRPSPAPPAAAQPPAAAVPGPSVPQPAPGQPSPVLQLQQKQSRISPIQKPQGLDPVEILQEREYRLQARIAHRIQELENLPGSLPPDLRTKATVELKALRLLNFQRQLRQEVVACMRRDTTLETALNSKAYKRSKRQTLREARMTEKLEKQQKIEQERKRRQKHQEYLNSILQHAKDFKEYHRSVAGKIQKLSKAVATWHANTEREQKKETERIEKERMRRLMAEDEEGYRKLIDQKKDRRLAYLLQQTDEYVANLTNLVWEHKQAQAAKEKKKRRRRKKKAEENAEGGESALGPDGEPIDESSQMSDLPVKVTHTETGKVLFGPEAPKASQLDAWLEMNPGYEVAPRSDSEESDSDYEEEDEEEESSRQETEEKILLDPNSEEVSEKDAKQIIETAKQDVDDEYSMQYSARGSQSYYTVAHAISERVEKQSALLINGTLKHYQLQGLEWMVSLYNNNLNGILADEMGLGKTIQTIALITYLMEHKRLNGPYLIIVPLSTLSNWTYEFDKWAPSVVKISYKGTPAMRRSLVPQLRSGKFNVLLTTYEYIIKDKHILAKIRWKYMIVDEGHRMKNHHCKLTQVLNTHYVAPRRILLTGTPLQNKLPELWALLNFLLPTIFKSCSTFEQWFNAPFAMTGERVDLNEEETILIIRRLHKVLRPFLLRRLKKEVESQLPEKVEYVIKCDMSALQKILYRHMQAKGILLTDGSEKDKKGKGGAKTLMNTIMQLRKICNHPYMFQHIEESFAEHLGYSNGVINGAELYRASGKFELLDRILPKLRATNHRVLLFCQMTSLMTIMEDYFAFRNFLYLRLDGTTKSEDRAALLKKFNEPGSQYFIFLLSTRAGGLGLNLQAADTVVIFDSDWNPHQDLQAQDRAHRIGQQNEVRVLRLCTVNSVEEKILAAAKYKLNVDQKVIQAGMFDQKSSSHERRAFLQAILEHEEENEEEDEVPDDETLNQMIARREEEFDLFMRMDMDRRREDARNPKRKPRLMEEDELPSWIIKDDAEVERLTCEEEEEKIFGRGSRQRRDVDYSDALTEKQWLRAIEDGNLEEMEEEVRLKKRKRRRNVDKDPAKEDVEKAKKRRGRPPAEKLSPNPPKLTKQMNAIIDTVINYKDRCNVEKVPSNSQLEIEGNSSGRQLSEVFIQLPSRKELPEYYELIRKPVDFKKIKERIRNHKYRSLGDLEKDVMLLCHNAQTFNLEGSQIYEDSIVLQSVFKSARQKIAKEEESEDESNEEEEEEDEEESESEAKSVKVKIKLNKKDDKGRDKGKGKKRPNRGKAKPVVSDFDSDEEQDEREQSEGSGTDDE

[19] = molecular target: Photoreceptor-specific nuclear receptor (Homo sapiens, UniProt Q9Y5X4); format: functional, cell-based;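 note: CHO-S cells with Gal4-NCOR and VP16-NR2E3 two-hybrid luciferase reporter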
Chain of Photoreceptor-specific nuclear receptor (Q9Y5X4 whole entry, the tested form may be a part): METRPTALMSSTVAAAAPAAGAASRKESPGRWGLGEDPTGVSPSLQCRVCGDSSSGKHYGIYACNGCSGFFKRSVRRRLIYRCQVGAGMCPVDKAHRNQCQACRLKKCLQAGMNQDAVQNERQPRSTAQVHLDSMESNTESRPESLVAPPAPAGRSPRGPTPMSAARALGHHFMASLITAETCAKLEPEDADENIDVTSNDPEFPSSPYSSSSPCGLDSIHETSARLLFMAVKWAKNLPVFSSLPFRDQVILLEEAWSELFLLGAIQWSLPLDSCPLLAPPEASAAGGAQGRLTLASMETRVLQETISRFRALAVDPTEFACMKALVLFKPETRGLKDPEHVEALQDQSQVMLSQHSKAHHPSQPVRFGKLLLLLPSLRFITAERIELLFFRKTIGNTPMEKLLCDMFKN

cells = format: functional, cell-based
[20] = molecular target: T6, Nuclear receptor subfamily 0 group B member 1 (Homo sapiens, UniProt P51843); format: functional, cell-based;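 note: HEK293T cells transfected with SF-1 and DAX-1 plus StAR promoter luciferase reporter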
T6 sequence (P51843 whole entry): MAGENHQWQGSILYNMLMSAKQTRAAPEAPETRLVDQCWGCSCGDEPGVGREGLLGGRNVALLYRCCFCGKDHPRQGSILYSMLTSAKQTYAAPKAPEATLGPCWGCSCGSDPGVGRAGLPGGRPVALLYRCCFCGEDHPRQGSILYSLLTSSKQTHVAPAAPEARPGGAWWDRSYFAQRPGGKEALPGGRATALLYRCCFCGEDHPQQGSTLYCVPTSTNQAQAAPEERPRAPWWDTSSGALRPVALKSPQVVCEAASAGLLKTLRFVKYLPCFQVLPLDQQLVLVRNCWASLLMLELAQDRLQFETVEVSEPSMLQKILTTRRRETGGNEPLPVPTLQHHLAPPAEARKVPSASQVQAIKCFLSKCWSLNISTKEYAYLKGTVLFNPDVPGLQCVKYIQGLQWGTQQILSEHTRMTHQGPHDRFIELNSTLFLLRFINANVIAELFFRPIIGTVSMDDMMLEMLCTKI

[21] = Luminescence Cell-Based Dose Confirmation HTS to Identify Inhibitors of Platelet Dense Granule Release. [Related pubchem assays: 1663 (Primary HTS), 1678 (Summary of Project)]; format: functional
[22] = molecular target: Luciferin 4-monooxygenase (Photinus pyralis, UniProt P08659); assay: firefly luciferase enzyme inhibitors, dose response, biochemical, luminescence (AID 1891)
Chain of Luciferin 4-monooxygenase (P08659 whole entry): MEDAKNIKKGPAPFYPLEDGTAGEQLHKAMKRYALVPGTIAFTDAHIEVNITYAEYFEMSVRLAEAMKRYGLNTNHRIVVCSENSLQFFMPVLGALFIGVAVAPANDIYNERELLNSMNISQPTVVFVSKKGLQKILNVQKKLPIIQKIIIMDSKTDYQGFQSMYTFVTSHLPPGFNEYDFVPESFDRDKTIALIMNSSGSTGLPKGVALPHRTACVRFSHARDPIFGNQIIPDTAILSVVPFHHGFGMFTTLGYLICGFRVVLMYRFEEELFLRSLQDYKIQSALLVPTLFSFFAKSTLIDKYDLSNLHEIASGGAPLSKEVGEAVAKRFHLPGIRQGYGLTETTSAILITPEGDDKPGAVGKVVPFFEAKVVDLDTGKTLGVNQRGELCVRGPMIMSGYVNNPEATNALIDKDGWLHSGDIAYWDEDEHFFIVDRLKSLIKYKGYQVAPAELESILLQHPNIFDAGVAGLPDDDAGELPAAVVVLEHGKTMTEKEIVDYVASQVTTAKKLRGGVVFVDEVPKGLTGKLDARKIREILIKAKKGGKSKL

[23] = molecular target: T7, DNA repair protein RAD52 homolog (Homo sapiens, UniProt P43351); format: functional, biochemical
T7 sequence (P43351 whole entry): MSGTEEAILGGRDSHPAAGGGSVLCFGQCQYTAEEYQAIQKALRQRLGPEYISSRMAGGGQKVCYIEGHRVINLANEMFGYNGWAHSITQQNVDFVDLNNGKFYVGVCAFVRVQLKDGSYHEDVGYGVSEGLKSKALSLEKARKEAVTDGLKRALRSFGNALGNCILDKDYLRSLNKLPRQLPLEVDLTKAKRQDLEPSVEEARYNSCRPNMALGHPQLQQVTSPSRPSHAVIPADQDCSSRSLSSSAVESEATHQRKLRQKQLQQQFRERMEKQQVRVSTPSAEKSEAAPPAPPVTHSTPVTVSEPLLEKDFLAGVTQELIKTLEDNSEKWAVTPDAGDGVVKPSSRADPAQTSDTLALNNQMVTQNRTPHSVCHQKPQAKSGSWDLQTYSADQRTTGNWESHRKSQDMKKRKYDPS

COc1ccc(-n2nnnc2C(c2cccc(OC)c2OC)N2CCC(n3c(O)nc4ccccc43)CC2)cc1 (stereo not drawn)
AC50 [1]: > 52 µM (inactive) | AC50 [2]: 17.6 µM (active) | AC50 [3]: 17.6 µM (active) | AC50 [4]: 21.5 µM (active) | AC50 [5]: 25.6 µM (active)

C/C=C1\COC(C(=O)NCc2cccc(OC)c2OC)(C(F)(F)F)C=C1C=C1CCCCC1 (stereo not drawn)
AC50 [6]: 9 µM (active) | AC50 [7]: 22.3 µM (active) | AC50 [8]: 19.8 µM (active) | AC50 [9]: 50.1 µM (active) | AC50 [10]: 35.6 µM (active)

Cn1c(=O)c2c(nc(NCCc3ccccc3)n2Cc2ccccc2)n(C)c1=O
AC50 [7]: 49.1 µM (active) | AC50 [8]: 30.8 µM (active) | AC50 [10]: 12 µM (active)

CCOc1cccc(C(=O)Nc2ccc3ccccc3c2)c1
AC50 [1]: > 52 µM (inactive) | AC50 [2]: 5.95 µM (active) | IC50 [11]: 1.46 µM (active) | AC50 [3]: > 52 µM (inactive) | IC50 [12]: 2.37 µM (active) | IC50 [13]: 4.95 µM (active) | IC50 (Caspase-3): 3.54 µM (active) | AC50 [4]: 5.43 µM (active) | AC50 [5]: > 52 µM (inactive)

Cc1c(OCC(=O)N2CCC[C@@H]2C(=O)O)ccc2c3c(c(=O)oc12)CCC3
IC50 (Beta-lactamase [14]): > 59.6 µM (inactive) | IC50 (Beta-lactamase [15]): > 59.6 µM (inactive) | IC50 (Beta-lactamase [16]): > 59.6 µM (inactive)

O=C(O)Cn1cccc1C(=O)c1ccccc1
IC50 (Beta-lactamase [14]): > 59.6 µM (inactive) | IC50 (Beta-lactamase [15]): > 59.6 µM (inactive) | IC50 (Beta-lactamase [16]): > 59.6 µM (inactive)

COc1cccc(N2CCN(c3nc(O)cc(-c4ccccc4C)n3)CC2)c1
EC50 [17]: > 91.2 µM (inactive) | EC50 [18]: > 91.2 µM (inactive) | IC50 [19]: 0.0942 µM (active)

Cc1cc(OCC(=O)N2CCC[C@@H]2C(=O)O)c2c(C)c(C)c(=O)oc2c1
IC50 (Beta-lactamase [14]): > 59.6 µM (inactive) | IC50 (Beta-lactamase [15]): > 59.6 µM (inactive) | IC50 (Beta-lactamase [16]): > 59.6 µM (inactive)

O=C(Nc1ccccc1Cl)NC1CCCCCCC1
IC50 (cells): > 67.5 µM (inactive) | IC50 [20]: > 67.5 µM (inactive)

C=C[C@@]1(C)CC(=O)[C@]2(O)[C@@]3(C)[C@@H](O)CCC(C)(C)[C@@H]3[C@H](O)[C@H](OC(C)=O)[C@@]2(C)O1 [COLFORSIN]
IC50 (cells): > 67.5 µM (inactive) | IC50 [20]: 1.73 µM (active) | EC50 [21]: < 0.088 µM (active) | EC50 [22]: > 112 µM (not active)

COc1ccc(/C=C2\Sc3ccc(C(=O)NCCCN4CCCC4)cc3N(C)C2=O)cc1OC
IC50 (cells): > 67.5 µM (inactive) | AC50 [23]: 3.69 µM (active) | IC50 [20]: > 67.5 µM (inactive)
